Measured values as given in US20210046097A1, “NEUTRAL ENDOPEPTIDASE (NEP) AND HUMAN SOLUBLE ENDOPEPTIDASE (hSEP) INHIBITORS FOR PROPHYLAXIS AND TREATMENT OF EYE DISEASES” (FORTY-FOUR PHARMACEUTICALS SP. Z.O.O, priority 2018, published 2021).

Assays:
[1] = test system: doxorubicin-induced apoptosis in the liver; test: Doxorubicin-induced apoptosis in rat liver (TUNEL staining, stereological disector); assay type: in vivo
Description: (§1) Apoptosis is a significant component of cell death in optic and/or eye diseases including (i) all forms of primary and secondary glaucoma, preferably such as e.g. primary open-angle glaucoma, normal-tension glaucoma, primary angle-closure glaucoma, pseudoexfoliation syndrome and glaucoma, pigment dispersion syndrome and glaucoma, neovascular glaucoma, inflammatory glaucoma, lens-related glaucoma, traumatic glaucoma, primary congenital glaucoma, iatrogenic induced glaucoma, and malignant glaucoma (R. Agarwal, S. K. Gupta, P. Agarwal, R. Saxena & S. S. Agrawal (2009) Indian J. Ophthalmol. 57, 257-266); (ii) aquired macular disorders, preferably such as e.g. age-related macular degeneration, idiopathic choroidal neovascularisation, central serous chorioretinopathy, vitreomacular interface disorders, idiopathic macular telangiectasia, cystoid macular oedema, and microcystic macular oedema (J. L. Dunaief, T. Dentchev, G.-S. Ying & A. H. Milam (2002) Arch. Ophthalmol. 120, 1435-1442); (iii) optic neuropathy, preferably such as e.g. anterior or posterior ischemic optic neuropathy (B. J. Slater, Z. Mehrabian, Y. Guo, A. Hunter & S. L. Bernstein (2008) Invest. Ophthalmol. Vis. Sci. 49, 3671-3676); (iv) optic neuritis (K. S. Shindler, E. Ventura, M. Dutt & A. Rostami (2008) Exp.Eye Res. 87, 208-213); (v) uveitis, preferably such as e.g. anterior uveitis, intermediate uveitis, posterior uveitis, and panuveitis (C.-C. Chan, D. M. Matteson, Q. Li, S. M. Whitcup & R. B. Nussenblatt (1997) Arch. Ophthalmol. 115, 1559-1567); (vi) hereditary fundus dystrophies, preferably such as e.g. retinitis pigmentosa, cone dystrophy, cone-rod dystrophy, rod dystrophy, Stargardt's disease, Bietti's crystalline corneoretinal dystrophy, familial benign fleck retina, Best vitelliform macular dystrophy, adult-onset vitelliform macular dystrophy, North Carolina macular dystrophy, familial dominant drusen, and concentric annular macular dystrophy (H. Zhang, X. Li, X. Dai, J. Han, Y. Zhang, Y. Qi, Y. He, Y. Liu, B. Chang & J. J. Pang (2017) J. Ophthalmol. 2017, 1-13 9721362); (vii) retinal vascular diseases, preferably such as e.g. diabetic retinopathy, non-diabetic retinopathy, retinal venous occlusive disease, retinal arterial occlusive disease, ocular ischemic syndrome, hypertensive eye disease, sickle cell retinopathy, thalassemia retinopathy, retinopathy of prematurity, retinal artery macroaneurysm, primary retinal telangiectasia, Eales disease, and radiation retinopathy (G. Donati, A. Kapetanios, M. Dubois-Dauphin & C. J. Pournaras (2008) Acta Ophthalmol. 86, 302-306); (viii) scleritis or episcleritis (C. Heinz, N. Bograd, J. Koch & A. Heiligenhaus (2013) Graefes Arch. Clin. Exp. Ophthalmol. 251, 139-142); (ix) retinal detachments (J. G. Arroyo, L. Yang, D. Bula & D. F. Chen (2005) Am. […]

[2] = test system: doxorubicin-induced apoptosis in retinal ganglion cells; test: Doxorubicin-induced apoptosis in rat retinal ganglion cells (intravitreal doxorubicin, TUNEL staining, stereological disector); assay type: in vivo
Description: as §1

[3] = 60 mg/kg/d s.c., result in words
[4] = vs doxorubicin + vehicle, 60 mg/kg/d s.c.

## O=C(O)CN1C(=O)[C@@H](NC(=O)C2(C[C@@H](CCc3ccccc3)C(=O)O)CCCC2)CCc2ccccc21 [Example (6), (2R)-2-{[1-({[(3S)-1-(carboxymethyl)-2-oxo-2,3,4,5-tetrahydro-1H-1-benzazepin-3-yl]amino}carbonyl)cyclopentyl]methyl}-4-phenylbutanoic acid]
[1]; [3]
  Protection against doxorubicin induced apoptosis in the liver (reduction of Nv of TUNEL positive cells vs vehicle): significant protection
[1]; Wistar rats, 60 mg/kg/d s.c. osmotic minipump, doxorubicin 5 mg/kg i.p. t.i.d. days 1-3, 5 days after first injection, mean ± SEM
  Nv, number of TUNEL positive cells, liver: 7.93 ± 0.25 TUNEL positive cells×10^2/mm^3
[1]; Wistar rats, 60 mg/kg/d s.c. osmotic minipump, doxorubicin 5 mg/kg i.p. t.i.d. days 1-3, day 5
  Nv as % of doxorubicin + vehicle, liver: 76.54%
[1]; [4]
  Decrease of density of apoptotic cells in the rat liver: 23.46%
[2]; [3]
  Protection against doxorubicin induced apoptosis in the retina (reduction of Nv of TUNEL positive cells vs vehicle): significant protection
[2]; Wistar rats, 60 mg/kg/d s.c. osmotic minipump, doxorubicin 5 μg into vitreous body day 1, 5 days after, mean ± SEM
  Nv, number of TUNEL positive cells, retinal ganglion cells (RGC): 33.64 ± 0.96 TUNEL positive cells×10^3/mm^3
[2]; Wistar rats, 60 mg/kg/d s.c. osmotic minipump, doxorubicin 5 μg into vitreous body day 1, day 5
  Nv as % of doxorubicin + vehicle, RGC: 91.79%
[2]; [4]
  Decrease of density of apoptotic cells in the retina: 8.21%
